Patent US10266565B2, “Peptide mimetic ligands of polo-like kinase 1 polo box domain and methods of use” (The United States of America, as represented by the …, priority 2011, dated 2019)
“Also recorded” adds a separate entry of the source. Each block holds one molecule with its values, some of them ahead of it. *1 amine or outer side, *2 acyl side, *3 side chain or, on linkers, in order; H or OH if unused. Where a SMILES comes first, the peptide text is derived from it. Where no end group is shown, it is not given here. [ ]: non-standard residue; d: D form. Abu(3R-Me,4-PO3H2) = C[C@@H](CP(=O)(O)O)[C@H](N)C(=O)O; X1 = C[C@H]([C@H](N[*:1])C(=O)[*:2])C(F)(F)P(=O)(O)O; pT = C[C@@H](OP(=O)(O)O)[C@H](N)C(=O)O

What was measured:
Plk1 = target: T1, Plk1 (Homo sapiens, UniProt P53350); test: Peptide pull-down assay with bead-immobilized peptides, Plk1; assay type: binding; details: mitotic cell lysates
T1 construct: we used total lysates prepared from mitotic HeLa cells; endogenous in cells; host or cells: mitotic (nocodazole-arrested) HeLa cells
T1 sequence (P53350 2-603): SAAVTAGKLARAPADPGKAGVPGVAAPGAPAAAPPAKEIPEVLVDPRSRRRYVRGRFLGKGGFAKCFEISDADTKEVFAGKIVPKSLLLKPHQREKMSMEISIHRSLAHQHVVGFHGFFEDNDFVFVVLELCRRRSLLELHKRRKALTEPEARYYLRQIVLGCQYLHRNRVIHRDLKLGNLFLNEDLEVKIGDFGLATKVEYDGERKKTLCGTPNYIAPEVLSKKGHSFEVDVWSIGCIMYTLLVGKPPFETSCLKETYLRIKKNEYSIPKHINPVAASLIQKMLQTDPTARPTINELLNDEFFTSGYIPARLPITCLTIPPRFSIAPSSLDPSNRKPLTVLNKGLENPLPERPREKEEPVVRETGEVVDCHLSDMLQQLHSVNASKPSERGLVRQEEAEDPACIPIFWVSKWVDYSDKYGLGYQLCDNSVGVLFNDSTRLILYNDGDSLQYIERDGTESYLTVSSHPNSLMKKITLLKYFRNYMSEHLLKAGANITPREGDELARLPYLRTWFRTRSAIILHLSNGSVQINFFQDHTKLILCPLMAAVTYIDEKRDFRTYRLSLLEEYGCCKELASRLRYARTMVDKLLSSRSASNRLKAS
Method: For Plk1 pull-down assays with immobilized peptides, we used total lysates prepared from mitotic HeLa cells. […] Cells treated with 200 ng/ml of nocodazole for 16 h were lysed in TBSN buffer {20 mM Tris-Cl (pH8.0), 150 mM NaCl, 0.5% NP-40, 5 mM EGTA, 1.5 mM EDTA, 0.5 mM Na3VO4, 20 mM p-nitrophenyl phosphate, and protease inhibitor cocktail (Roche, Nutley, N.J.)}, and then clarified by centrifugation at 15,000×g for 20 min at 4° C. The resulting lysates were incubated with bead-immobilized peptides (40 μM per binding) for 2 h, precipitated, washed, and then boiled in sodium dodecyl sulfate (SDS) sample buffer to elute the associated proteins. Samples were separated by 10% SDS-polyacrylamide gel electrophoresis (PAGE), and then either stained with silver or transferred to PVDF membrane for immunoblotting analysis with anti-Plk1 antibody using the enhanced chemiluminescence (ECL) detection system (Pierce). […]

Plk1 PBD = Plk1 PBD (Homo sapiens, UniProt P53350); test: ELISA-based PBD-binding inhibition assay (immobilized biotinylated p-T78 peptide, HA-EGFP-Plk1 lysates); details: relative to the comparator named in the sentence
Chain of Plk1 PBD (P53350 whole entry): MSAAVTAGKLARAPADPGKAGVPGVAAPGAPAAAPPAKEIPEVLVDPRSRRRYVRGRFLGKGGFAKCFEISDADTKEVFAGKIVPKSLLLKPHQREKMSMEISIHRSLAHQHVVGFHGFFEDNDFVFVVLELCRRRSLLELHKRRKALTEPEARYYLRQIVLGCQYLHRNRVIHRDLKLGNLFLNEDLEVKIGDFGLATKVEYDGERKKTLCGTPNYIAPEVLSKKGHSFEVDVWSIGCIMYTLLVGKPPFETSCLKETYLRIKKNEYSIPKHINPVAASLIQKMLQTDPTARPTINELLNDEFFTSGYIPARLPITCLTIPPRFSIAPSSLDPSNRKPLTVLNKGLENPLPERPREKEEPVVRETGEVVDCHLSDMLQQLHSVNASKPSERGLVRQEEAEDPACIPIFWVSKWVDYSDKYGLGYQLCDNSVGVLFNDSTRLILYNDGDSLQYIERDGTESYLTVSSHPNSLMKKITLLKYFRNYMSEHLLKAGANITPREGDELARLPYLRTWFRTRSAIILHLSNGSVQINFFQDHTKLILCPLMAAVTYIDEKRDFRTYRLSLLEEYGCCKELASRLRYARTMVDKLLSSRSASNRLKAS
Method: The wells were washed once with PBS plus 0.05% Tween20 (PBST), and incubated with 200 μl of PBS plus 1% BSA (blocking buffer) for 1 h to prevent non-specific binding. […] Following the incubation, ELISA plates were washed 4 times with PBST. To detect bound HA-EGFP-Plk1, the plates were probed for 2 h with 100 μl/well of anti-HA antibody at a concentration of 0.5 μg/ml in blocking buffer and then washed 5 times. The plates were further probed for 1 h with 100 μl/well of HRP-conjugated secondary antibody (GE Healthcare, Piscataway, N.J.) at a 1:1,000 dilution in blocking buffer. The plates were washed 5 times with PBST and incubated with 100 μl/well of 3,3′,5,5′-tetramethylbenzidine (TMB) solution (Sigma, St. Louis, Mo.) as a substrate until a desired absorbance was reached. […] The optical density (O.D.) was measured at 450 nm by using an ELISA plate reader (Molecular Devices, Sunnyvale, Calif.).
A biotinylated p-T78 peptide was first diluted with IX coating solution (KPL Inc., Gaithersburg, Md.) to a final concentration of 0.3 μM, and then 100 μL of the resulting solution was immobilized onto a 96-well streptavidin-coated plate (Nalgene Nunc, Rochester, N.Y.). […] The plates were washed 5 times with PBST and incubated with 100 μL/well of 3,3′,5,5′-tetramethylbenzidine (TMB) substrate solution (Sigma, St. Louis, Mo.) until a desired absorbance was achieved. […]

Plk2 PBD = target: T2, Plk2 PBD (Homo sapiens, UniProt Q9NYY3); test: Isothermal titration calorimetry with recombinant Plk2 PBD
T2 sequence (Q9NYY3 373-685): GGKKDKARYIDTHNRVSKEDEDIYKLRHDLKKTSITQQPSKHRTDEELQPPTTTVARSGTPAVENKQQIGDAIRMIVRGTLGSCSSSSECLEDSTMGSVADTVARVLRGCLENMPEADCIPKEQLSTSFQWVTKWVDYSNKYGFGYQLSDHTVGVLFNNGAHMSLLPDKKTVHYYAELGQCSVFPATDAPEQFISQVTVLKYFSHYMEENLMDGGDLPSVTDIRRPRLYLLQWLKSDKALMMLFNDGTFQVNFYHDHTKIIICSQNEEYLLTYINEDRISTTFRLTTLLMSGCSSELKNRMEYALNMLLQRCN
Method: The calorimetric titrations were carried out using purified recombinant PBDs (for Plk1 and Plk2) from bacterial cells and the indicated peptides.
The calorimetric titrations were performed on a VP-ITC titration calorimeter (Microcal, Inc., Northampton, Mass.). In a typical experiment, 5 l aliquots of a phosphorylated peptide were injected from a 250 l syringe into a rapidly mixing (300 rpm) solution of Plk1 PBD (cell volume=1.3472 ml). Control experiments involved injecting identical amounts of the peptide solution into buffer without Plk1 PBD. […] Titrations were carried out at 25° C. in 20 mM Tris-Cl (pH 7.5), 100 mM NaCl, 3 mM DTT. The isotherms, corrected for dilution/buffer effects, were fit using the Origin ITC Analysis software according to manufacturer's protocols. A nonlinear least-square method was used to fit the titration data and to calculate the errors. Consistent with the structural data, a 1:1 stoichiometry was assumed and the data were fit to a one-site binding model. From the binding curve, values for enthalpy and binding affinity were extracted. Thermodynamic parameters were calculated using ΔG=−RTlnKa, ΔG=ΔH−TΔS.
Full length PBD was dialyzed against a low salt buffer (20 mM Tris-Cl, pH 7.5, 100 mM NaCl, 3 mM DTT), and used in calorimetry experiments.

[1] = target: Plk1 PBD-p-Cdc25C interaction (Homo sapiens, UniProt P53350); test: Competition of the PBD-p-Cdc25C interaction in mitotic HeLa lysates; assay type: binding; details: GST-PBD
Chain of Plk1 PBD-p-Cdc25C interaction (P53350 326-603 limits assumed): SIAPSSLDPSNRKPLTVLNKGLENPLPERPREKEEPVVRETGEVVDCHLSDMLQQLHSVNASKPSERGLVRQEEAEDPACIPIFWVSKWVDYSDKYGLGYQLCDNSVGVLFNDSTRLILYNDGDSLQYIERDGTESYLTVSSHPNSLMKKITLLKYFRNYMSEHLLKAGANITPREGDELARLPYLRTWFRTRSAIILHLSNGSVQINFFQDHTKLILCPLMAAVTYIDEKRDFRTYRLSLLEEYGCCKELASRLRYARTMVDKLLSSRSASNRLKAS
Method: For p-Cdc25C pull-down assays, either bead-bound GST-PBD or the corresponding GST-PBD(H538A K540M) mutant was incubated with mitotic HeLa lysates in TBSN buffer supplemented with 2 mM DTT. To test the ability of the indicated peptides to compete the PBD-p-Cdc25C interaction, lysates were pre-incubated with GST-PBD for 1.5 h prior to the addition of the indicated peptides. Lysates were then incubated for additional 1.5 h, washed in the binding buffer, and then analyzed. For competition of the interaction between p-Cdc25C and endogenous Plk1, mitotic lysates were prepared in TBSN and incubated with the indicated peptides for 1 h before subjecting to immunoprecipitation with anti-Plk1 antibody.

Plk2 = target: T3, Plk2 (Mus musculus, UniProt P53351, K108M); test: Peptide pull-down assay with bead-immobilized peptides, Plk2; assay type: binding
T3 construct: expressed in transfected cells
T3 sequence (P53351 whole entry K108M): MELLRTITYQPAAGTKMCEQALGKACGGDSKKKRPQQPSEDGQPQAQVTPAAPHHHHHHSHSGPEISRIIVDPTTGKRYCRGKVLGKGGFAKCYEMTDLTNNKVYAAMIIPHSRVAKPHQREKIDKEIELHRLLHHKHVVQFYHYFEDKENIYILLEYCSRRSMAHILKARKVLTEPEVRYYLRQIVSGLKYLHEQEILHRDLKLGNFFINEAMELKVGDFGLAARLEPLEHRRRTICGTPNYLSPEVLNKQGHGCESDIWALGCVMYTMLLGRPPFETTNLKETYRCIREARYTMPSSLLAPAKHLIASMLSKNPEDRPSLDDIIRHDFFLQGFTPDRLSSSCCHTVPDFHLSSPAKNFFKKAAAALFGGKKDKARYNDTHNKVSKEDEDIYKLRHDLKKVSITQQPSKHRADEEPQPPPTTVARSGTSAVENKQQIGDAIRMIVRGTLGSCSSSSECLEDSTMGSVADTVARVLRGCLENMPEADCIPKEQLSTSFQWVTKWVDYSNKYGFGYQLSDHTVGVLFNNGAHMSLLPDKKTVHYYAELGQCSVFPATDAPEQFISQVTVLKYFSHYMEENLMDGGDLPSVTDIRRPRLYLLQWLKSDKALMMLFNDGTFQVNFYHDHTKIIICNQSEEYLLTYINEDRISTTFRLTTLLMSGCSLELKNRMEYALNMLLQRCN
Method: After incubating the cell lysates prepared in TBSN buffer {20 mM Tris-Cl (pH8.0), 150 mM NaCl, 0.5% Np-40, 5 mM EGTA, 1.5 mM EDTA, 20 mM p-nitrophenylphosphate and protease inhibitor cocktail (Roche, Nutley, N.J.)} with the bead-immobilized ligands for 2 h at 4° C., the ligand-associating proteins were precipitated, washed, boiled in sodium dodecyl sulfate (SDS) sample buffer, separated by 8% SDS-polyacrylamide gel electrophoresis (PAGE), and then subjected to immunoblotting analysis with anti-Flag antibody and the enhanced chemilunimescence (ECL) detection system (Pierce). The same membrane was also stained with Coomassies (CBB). Signal intensities were quantified using Image J program.
To investigate the binding specificity of p-T78 peptides to various Plks, Flag-Plk1 (K82M), Flag-Plk2(K108M)3 or Flag-Plk3(K52R) (a gift of Wei Dai, New York University School of Medicine, NY) construct was first transfected into HeLa cells. Cellular lysates were prepared as above, mixed, and then incubated in TBSN buffer with the immobilized peptides indicated.

Plk3 = target: T4, Plk3 (Homo sapiens, UniProt Q9H4B4, K91R); test: Peptide pull-down assay with bead-immobilized peptides, Plk3; assay type: binding
T4 construct: expressed in transfected cells; construct a gift of Wei Dai
T4 sequence (Q9H4B4 40-646 K91R limits assumed): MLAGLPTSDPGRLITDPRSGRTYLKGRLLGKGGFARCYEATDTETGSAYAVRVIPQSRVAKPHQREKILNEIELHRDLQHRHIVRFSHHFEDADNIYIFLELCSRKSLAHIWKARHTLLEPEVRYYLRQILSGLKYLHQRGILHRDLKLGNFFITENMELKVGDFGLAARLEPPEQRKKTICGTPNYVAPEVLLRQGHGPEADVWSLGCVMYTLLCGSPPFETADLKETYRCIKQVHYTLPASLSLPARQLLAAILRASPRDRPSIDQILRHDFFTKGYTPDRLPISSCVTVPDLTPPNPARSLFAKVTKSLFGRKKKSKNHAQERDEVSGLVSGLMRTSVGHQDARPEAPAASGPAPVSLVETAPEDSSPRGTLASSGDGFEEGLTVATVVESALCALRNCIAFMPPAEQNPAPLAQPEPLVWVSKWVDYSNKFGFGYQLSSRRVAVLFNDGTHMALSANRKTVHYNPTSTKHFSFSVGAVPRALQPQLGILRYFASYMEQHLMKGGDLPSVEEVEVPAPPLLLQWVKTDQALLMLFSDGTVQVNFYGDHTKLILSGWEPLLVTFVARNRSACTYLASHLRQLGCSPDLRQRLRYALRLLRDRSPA

HeLa cells [2] = test: Direct treatment of cultured HeLa cells (mitotic arrest, apoptotic cell death, Plk1 localization); assay type: cell-based; details: 200 μM
HeLa cells [3] = details: Yun et al. 2009; cited from earlier work
[4] = Toxicity in cell-based experiments
Flag-Plk2 (K108M) [5] = target: Flag-Plk2 (K108M) (UniProt Q9NYY3); test: pull-down with bead-immobilized peptide, mixed Flag-Plk1/2/3 lysates (HeLa)
[6] = target: T5, recombinant Plk2 PBD (residues 373 to 685) (human) (UniProt Q9NYY3); test: ITC; saturable binding not observed
T5 sequence (looked up): T2 sequence (Q9NYY3 373-685)

Flag-Plk2 (K108M) [7] = target: Flag-Plk2 (K108M) (UniProt Q9NYY3); test: assay not stated at this place (peptide pull-down by paragraph 548)
[8] = target: T5, recombinant Plk2 PBD (residues 373 to 685) (human); test: ITC
Flag-Plk1 (K82M) = Flag-Plk1 (K82M) (UniProt P53350 1-603); test: pull-down with bead-immobilized peptide, mitotic HeLa lysate
Chain of Flag-Plk1 (K82M) (P53350 whole entry K82M): as the sequence (P53350 whole entry) above, with K82M counted along it

HA-EGFP-Plk1 [9] = target: T6, HA-EGFP-Plk1 (UniProt P53350 1-603); test: ELISA-based PBD-binding inhibition assay: peptide as competitor of the immobilized biotinylated 9-mer p-T78 peptide for HA-EGFP-Plk1 in mitotic 293A cell lysate; bound Plk1 detected with anti-HA, OD 450 nm
T6 construct: In lysates of mitotic 293A cells infected with adenovirus expressing HA-EGFP-Plk1
T6 sequence (P53350 whole entry): as the sequence (P53350 whole entry) above

HA-EGFP-Plk1 [10] = target: T6, HA-EGFP-Plk1; test: competition ELISA, HA-EGFP-Plk1 lysate on immobilized biotin p-T78 9-mer

- efficiency of precipitation relative to Plk1 (Flag-Plk2 (K108M) [5]): 27%
- initial heats of interaction [6]: -1.68 kcal/mol
B1: MQSpTPL (peptide)
peptide: MQS[pT]PL

- fold increase of Plk2 binding (Flag-Plk2 (K108M) [7]): 24 fold
- initial heats of interaction [8]: -1.1 kcal/mol
B2: PLQSpT (peptide)
peptide: PLQS[pT]

- binding result (Flag-Plk1 (K82M)): no binding
- binding result (HA-EGFP-Plk1 [9]): no binding (tested: 300 µM)
- fold higher molar concentration without inhibition (HA-EGFP-Plk1 [10]): > 1000 fold
B3: PLHA-Pmab (peptide)
peptide: PLHA[Abu(3R-Me,4-PO3H2)]
notes: also called 24; Pmab(S77A)

Continued, molecule first:

Molecule: CC(=O)N[C@@H](CC(C)C)C(=O)N[C@@H](Cc1c[nH]cn1)C(=O)N[C@@H](CO)C(=O)N[C@H](C(=O)N[C@@H](C)C(N)=O)[C@@H](C)OP(=O)(O)O [LHSpTA]
- Plk1 binding / precipitation in pull-down, in words (Plk1): bound to Plk1 almost as efficiently as PLHSpT
- Plk1 PBD-binding affinity / inhibition, in words (Plk1 PBD): inhibited the PBD at a moderately reduced level
- interaction with Plk2 PBD by calorimetry, in words (Plk2 PBD): virtually no interactions with Plk2
- disruption of the pre-formed PBD-p-Cdc25C complex [1]: disrupted the pre-formed PBD-p-Cdc25C complex nearly as efficiently as PLHSpT

Molecule: COCCOCCOCCOCCOCCOCCOCCOCCC(=O)N1CCC[C@H]1C(=O)N[C@@H](CC(C)C)C(=O)N[C@@H](Cc1cncn1CCCCCCCCc1ccccc1)C(=O)N[C@@H](CO)C(=O)N[C@H](C(N)=O)[C@@H](C)CP(=O)(O)O [PEG-4j*]
- Plk2 binding / precipitation in pull-down, in words (Plk2): failed to significantly interact
- Plk3 binding / precipitation in pull-down, in words (Plk3): failed to significantly interact
- Plk1 delocalization and misaligned chromosomes (HeLa cells [2]): drastic Plk1 delocalization from centrosomes and kinetochores, and severe misaligned chromosomes
- mitotic arrest / apoptotic cell death / cellular response (HeLa cells [2]): effectively induced mitotic arrest and apoptotic cell death

Molecule: CC(=O)N1CCC[C@H]1C(=O)N[C@@H](CC(C)C)C(=O)N[C@@H](Cc1c[nH]cn1)C(=O)N[C@@H](CO)C(=O)N[C@H](C(N)=O)[C@@H](C)OP(=O)(O)O [compound 1, PLHSpT]
- Plk1 localization and apoptotic cell death after microinjection (HeLa cells [3]): interferes with proper subcellular localization of Plk1 and induces apoptotic cell death
- mitotic arrest / apoptotic cell death / cellular response (HeLa cells [2]): failed to elicit a detectable cellular response; also recorded: failed to generate a detectable level of cellular effect

Molecule: CC(=O)N1CCC[C@H]1C(=O)N[C@@H](CC(C)C)C(=O)N[C@@H](Cc1c[nH]cn1)C(=O)N[C@@H](CO)C(=O)N[C@H](C(=O)N[C@@H](C)C(N)=O)[C@@H](C)C(F)(F)P(=O)(O)O [compound 25, PLHS-F2Pmab-A] (Ac-PLHS[X1]A-NH2)
- toxicity [4]: significant toxicity
